In patent US5814488A (priority 1993, dated 1998):
Values after ≈ are worked out from the molar mass of the structure shown. Where two headings read alike, the source gives them in different places.

What was measured:
Test in all cases: In vitro antibacterial activity against 1108 strains pathogenic bacteria (Table 4)
Assay type in all cases: cell-based
Acinetobacter sp. = details: 27 strains
Description: (§1) […]. […] […]

Ciltrobacter sp. = details: 30 strains
Description: as §1

Enterobacter aerugenes = tested on: Enterobacter aerugenes
Description: as §1

Escherichia coli = tested on: Escherichia coli
Description: as §1

Klebsiella pneumoniae = tested on: Klebsiella pneumoniae
Description: as §1

Proteus mirabilis = details: 60 strains
Description: as §1

Pseudomonas sp. = details: 204 strains
Description: as §1

Salmonella typhi = details: Salmonella enterica
Description: as §1

Enterobacter cloacae = details: 29 strains
Shigella dysenteriae = tested on: Shigella dysenteriae
Serratia sp. = details: 30 strains
Haemophilus influenzae = details: 8 strains
Streptococcus viridans = details: 27 strains
Streptococcus pneumoniae = details: 14 strains
[1] = Enterobacter aerugenes, 27 strains

What does the source list for CCNC1CC(N)C(OC2OC(CN)CCC2N)C(O)C1OC1OCC(C)(O)C(NC)C1O (stereo not drawn)?
MIC50 (Acinetobacter sp.): 0.5 µg/mL (≈ 1.05 µM); MIC90 (Acinetobacter sp.): 256 µg/mL (≈ 536 µM); MIC range (Acinetobacter sp.; in µg/mL (unit assumed)): 0.125-256; MIC (Acinetobacter sp.; read-out: Mode MIC): 0.25 µg/mL (≈ 0.523 µM); MIC50 (Ciltrobacter sp.): 0.25 µg/mL (≈ 0.523 µM); MIC90 (Ciltrobacter sp.): 16 µg/mL (≈ 33.5 µM); MIC range (Ciltrobacter sp.; in µg/mL (unit assumed)): 0.125-128; MIC (Ciltrobacter sp.; read-out: Mode MIC): 0.25 µg/mL (≈ 0.523 µM); MIC50 (Enterobacter aerugenes; [1]): 0.25 µg/mL (≈ 0.523 µM); MIC90 (Enterobacter aerugenes; [1]): 16 µg/mL (≈ 33.5 µM); MIC (Enterobacter aerugenes; Enterobacter aerugenes, 27 strains, read-out: MIC range): 0.062 to 32 µg/mL (≈ 0.13 to 67 µM); MIC (Enterobacter aerugenes; Enterobacter, read-out: Mode MIC): 0.125 µg/mL (≈ 0.262 µM); MIC50 (Escherichia coli; 146 strains): 0.25 µg/mL (≈ 0.523 µM); MIC90 (Escherichia coli; 146 strains): 16 µg/mL (≈ 33.5 µM); MIC (Escherichia coli; 146 strains, read-out: Mode MIC): 0.25 µg/mL (≈ 0.523 µM); MIC (Escherichia coli; read-out: MIC range): 0.125 to 64 µg/mL (≈ 0.262 to 134 µM); MIC50 (Klebsiella pneumoniae): 0.125 µg/mL (≈ 0.262 µM); MIC90 (Klebsiella pneumoniae; 115 strains): 8 µg/mL (≈ 16.8 µM); MIC range (Klebsiella pneumoniae; 115 strains, in µg/mL (unit assumed)): 0.062-128; MIC (Klebsiella pneumoniae; read-out: Mode MIC): 0.125 µg/mL (≈ 0.262 µM); MIC50 (Proteus mirabilis): 0.5 µg/mL (≈ 1.05 µM); MIC90 (Proteus mirabilis): 2 µg/mL (≈ 4.19 µM); MIC range (Proteus mirabilis; in µg/mL (unit assumed)): 0.125-128; MIC (Proteus mirabilis; read-out: Mode MIC): 0.5 µg/mL (≈ 1.05 µM); MIC50 (Pseudomonas sp.): 8 µg/mL (≈ 16.8 µM); MIC90 (Pseudomonas sp.): > 256 µg/mL; MIC (Pseudomonas sp.; read-out: Mode MIC): 8 µg/mL (≈ 16.8 µM); MIC50 (Salmonella typhi): 0.5 µg/mL (≈ 1.05 µM); MIC90 (Salmonella typhi): 8 µg/mL (≈ 16.8 µM); MIC (Salmonella typhi; read-out: MIC range): 0.062 to 32 µg/mL (≈ 0.13 to 67 µM); MIC (Salmonella typhi; read-out: Mode MIC): 0.5 µg/mL (≈ 1.05 µM); MIC50 (Enterobacter cloacae): 2 µg/mL (≈ 4.19 µM); MIC90 (Enterobacter cloacae): 64 µg/mL (≈ 134 µM); MIC (Enterobacter cloacae; read-out: Mode MIC): 0.25 µg/mL (≈ 0.523 µM); MIC50 (Shigella dysenteriae): 0.25 µg/mL (≈ 0.523 µM); MIC90 (Shigella dysenteriae): 0.5 µg/mL (≈ 1.05 µM); MIC (Shigella dysenteriae; read-out: MIC range): 0.125 to 64 µg/mL (≈ 0.262 to 134 µM); MIC (Shigella dysenteriae; read-out: Mode MIC): 0.25 µg/mL (≈ 0.523 µM); MIC50 (Serratia sp.): 0.5 µg/mL (≈ 1.05 µM); MIC90 (Serratia sp.): 32 µg/mL (≈ 67 µM); MIC range (Serratia sp.; in µg/mL (unit assumed)): 0.062-256; MIC (Serratia sp.; read-out: Mode MIC): 0.5 µg/mL (≈ 1.05 µM); MIC50 (Haemophilus influenzae): 0.031 µg/mL (≈ 0.0649 µM); MIC90 (Haemophilus influenzae): 4 µg/mL (≈ 8.38 µM); MIC (Haemophilus influenzae; read-out: MIC range): 0.031 to 4 µg/mL (≈ 0.0649 to 8.38 µM); MIC (Haemophilus influenzae; read-out: Mode MIC): 0.031 µg/mL (≈ 0.0649 µM); MIC50 (Streptococcus viridans): 1 µg/mL (≈ 2.09 µM); MIC90 (Streptococcus viridans): 4 µg/mL (≈ 8.38 µM); MIC (Streptococcus viridans; read-out: MIC range): 0.062 to 4 µg/mL (≈ 0.13 to 8.38 µM); MIC (Streptococcus viridans; read-out: Mode MIC): 2 µg/mL (≈ 4.19 µM); MIC50 (Streptococcus pneumoniae): 0.25 µg/mL (≈ 0.523 µM); MIC90 (Streptococcus pneumoniae): 4 µg/mL (≈ 8.38 µM); MIC (Streptococcus pneumoniae; read-out: MIC range): 0.031 to 16 µg/mL (≈ 0.0649 to 33.5 µM); MIC (Streptococcus pneumoniae; read-out: Mode MIC): 0.031 µg/mL (≈ 0.0649 µM)
